US20220273007A1, “FUNCTIONAL FOOD FOR PREVENTING OR IMPROVING DYSURIA” (MARUHACHI MURAMATSU, INC., priority 2019, published 2022)

Columns and labels:
[1] = system: rat bladder smooth muscle; test: Organ bath assay: 80 mM KCl contractile inhibition assay
Method: The concentration of each fatty acid was set according to the amount thereof present in a 95% ethanol extract of akamoku (Japan Food Research Laboratories; JFRL quantitative analysis). […] Ethanol was used as a control. As in the example described above, 80 mM KCl, a contraction inducer, was also added to induce contraction. The tension (contractile force) of slices of rat bladder smooth muscle was then measured to evaluate contraction inhibition effects. […]
The maximum concentration of each fatty acid was set according to the amount thereof present in a 95% ethanol extract of akamoku (JFRL quantitative analysis). Concentrations of 7.1 μg/mL EPA, 21.3 μg/mL EPA, 71 μg/mL EPA, 4.7 μg/mL stearidonic acid, 14.1 μg/mL stearidonic acid, and 47 μg/mL stearidonic acid were set. As in the examples described above, 80 mM KCl, a contraction inducer, was also added to induce contraction. The tension (contractile force) of slices of rat bladder smooth muscle was then measured to evaluate contraction inhibition effects.

[2] = system: acetic-acid-induced pollakiuria model rats; test: In vivo assay (cystometry) using acetic-acid-induced pollakiuria model rats; set-up: species or system rat; settings: 0.5 mg/kg oral (MC solution)
Method: In this experiment, 0.1% acetic acid diluted with normal saline was directly injected into the bladders of urethane-anesthetized rats to induce bladder hypersensitivity and create model rats having symptoms of acute (or chronic) pollakiuria, and in vivo assays were performed using these acetic-acid-induced pollakiuria model rats. […] In this way, the effects of the 95% ethanol extract of akamoku upon pollakiuric states in rats were investigated.
control (vehicle)=0.5% methyl cellulose (MC); and akamoku extract=50 mg/mL MC solution of akamoku extract.
• Maximum intravesical pressure (voiding pressure) • Base pressure • Threshold pressure • Voiding interval • Volume per void
Using the model rats with symptoms of acute (chronic) pollakiuria created in experiment 13, a 50 mg/mL MC solution of 50% ethanol extract of akamoku was orally administered to the model rats (n=7). In the graphs in FIG. 18, measured parameters are the voiding intervals, volume per void, and voiding frequency per unit of time of the rats, and pollakiuria-symptomatic model rats are compared with control rats receiving 0.5% methyl cellulose (MC) solution. In this way, the effects of the 50% ethanol extract of akamoku upon pollakiuric states in rats are investigated.
Using the model rats with symptoms of acute (chronic) pollakiuria created in experiment 13, a 50 mg/mL aqueous solution of aqueous akamoku extract was orally administered to the model rats. In the graphs in FIG. 19, measured parameters are the voiding intervals, volume per void, and voiding frequency per unit of time of the rats, compared with control rats receiving ultrapure water. In this way, the effects of the aqueous akamoku extract upon pollakiuric states in rats are investigated.
Using the model rats with symptoms of acute (chronic) pollakiuria created in experiment 13, 0.5 mg/kg akamoku-derived fucoxanthin Fx (MC solution) was orally administered to the model rats. […] In the graphs in FIG. 20, measured parameters are the voiding intervals, volume per void, and voiding frequency per unit of time of the rats, compared with control rats receiving 0.5% methyl cellulose (MC) solution.

For `CC/C=C\C/C=C\C/C=C\C/C=C\C/C=C\CCCC(=O)O` [EPA, eicosapentaenoic acid], the “average contraction compared to 100% uninhibited contraction” value ([1]; 71 μg/mL, 80 mM KCl) was 73.3%, the activity at 7.1 µg/mL ([1]; Rattus norvegicus, 7.1 μg/mL, 80 mM KCl, read-out: average contraction compared to 100% uninhibited contraction) was 91.1% and the activity at 21.3 µg/mL ([1]; Rattus norvegicus, 21.3 μg/mL, 80 mM KCl, read-out: average contraction compared to 100% uninhibited contraction) was 87.2%. The activity at 71 µg/mL ([1]; Rattus norvegicus, 71 μg/mL, 80 mM KCl, read-out: average contraction compared to 100% uninhibited contraction) was 78.2%.

With `CCCCC/C=C\C/C=C\C/C=C\C/C=C\CCCC(=O)O` [arachidonic acid] the activity at 44 µg/mL ([1]; Rattus norvegicus, 44 μg/mL, 80 mM KCl, read-out: average contraction compared to 100% uninhibited contraction) was 82%.

With `CC/C=C\C/C=C\C/C=C\CCCCCCCC(=O)O` [α-linolenic acid] the activity at 36 µg/mL ([1]; Rattus norvegicus, 36 μg/mL, 80 mM KCl, read-out: average contraction compared to 100% uninhibited contraction) was 86.8%.

For `CC/C=C\C/C=C\C/C=C\C/C=C\CCCCC(=O)O` [stearidonic acid], the “average contraction compared to 100% uninhibited contraction” value ([1]; 47 μg/mL, 80 mM KCl) was 75.6%, the activity at 4.7 µg/mL ([1]; Rattus norvegicus, 4.7 μg/mL, 80 mM KCl, read-out: average contraction compared to 100% uninhibited contraction) was 87.8% and the activity at 14.1 µg/mL ([1]; Rattus norvegicus, 14.1 μg/mL, 80 mM KCl, read-out: average contraction compared to 100% uninhibited contraction) was 89.5%. The activity at 47 µg/mL ([1]; Rattus norvegicus, 47 μg/mL, 80 mM KCl, read-out: average contraction compared to 100% uninhibited contraction) was 68.5% and the “inhibition of 80 mM KCl contraction” value ([1]; fatty acid at amount present in 95% ethanol extract of akamoku (EPA 71 μg/mL, stearidonic acid 47 μg/mL)) was “significantly inhibited contraction”.

`CC(=O)O[C@H]1CC(C)(C)C(=C=C/C(C)=C/C=C/C(C)=C/C=C/C=C(C)/C=C/C=C(\C)C(=O)C[C@@]23O[C@]2(C)C[C@@H](O)CC3(C)C)[C@](C)(O)C1` [akamoku-derived fucoxanthin, fucoxanthin] was tested, and the “improvement in 0.1% acetic-acid-induced pollakiuria” value [2] was “significant improvement”, the “voiding frequency per unit of time” value [2] was “decreased” and the voiding interval [2] was “tended to increase”. The volume per void [2] was “increased”.
